Laboratory results as given in patent US20220339135A1, “COMPOSITIONS AND METHODS FOR MODULATING AN INFLAMMATORY RESPONSE” (Enzychem Lifesciences Corporation, priority 2019, published 2022).
Like-named read-outs stand apart in the source and are kept apart here.

What was measured:
[1] = system: RIPK1, RIPK3, MLKL in THP-1 cells; assay: MSU-induced phosphorylation of RIPK1, RIPK3, MLKL, western blot; type: cell-based, human
Experimental: (A) THP-1 cells were pre-incubated with PLAG (100 μg/mL) for an hour and then stimulated with MSU crystal (400 μg/mL). After 0, 7, 15, 30, 60 minutes, cells were harvested. (B) THP-1 cells were pre-incubated with PLAG (1, 10, 100 μg/mL) for 1 hour and then stimulated with MSU crystal (400 μg/mL). After 1 h, cells were harvested. THP-1 cells were lysis with 1×RIPA lysis buffer containing the protease inhibitor (Roche, Basel, Switzerland) and phosphatase inhibitor (Thermo Scientific, MA, USA) on ice for 30 min. The cell lysates were clarified by centrifugation (13,000 rpm, 4° C., 30 min), and the protein quantity from each sample was examined by Bradford assay (Bio-Rad). Proteins from each sample were separated by sodium dodecyl sulfate-polyacrylamide gel electrophoresis on 12% polyacrylamide gels and the proteins were blotted onto a PVDF membrane (Millipore Corporation, Germany). The membrane was blocked with 5% non-fat dried milk (BD bioscience) in PBS containing 0.05% Tween-20 (Calbiochem) for 1 hour. The membrane was incubated with anti-phospho-RIPK3 (abcam), RIPK3 (novusbio), p-MLKL (abcam), MLKL (Sigma), p-RIP (Cell Signaling Technology), RIPK1 (R&D System) and β-actin (Cell Signaling Technology) at 4° C. overnight. […] Target proteins were detected with Immobilon Western Chemiluminescent HRP Substrate (Millipore Corporation).

[2] = system: MIP-2, IL-6, CXCL8 in RAW 264.7 or HaCaT cells; assay: IMQ-induced chemokine release, ELISA; type: cell-based; conditions: PLAG 1, 10, 100 μg/ml, IMQ 12 hours, dose-dependent
Experimental: RAW 264.7 or HaCaT cells were divided into three groups: 1) control (non-treated) group, 2) IMQ treated group, and 3) IMQ/PLAG treated group. For IMQ treated group, cells were treated with 1, 10, 100 μg/ml of DMSO (as solvent control) for 1 hour and treated with 5 μg/mL of IMQ for 12 hours. For IMQ/PLAG treated group, cells were treated with 1, 10, 100 μg/ml of PLAG for 1 hour and treated with 5 μg/mL of IMQ for 12 hours. MIP-2 (A), IL-6 (B) and CXCL8 (C) in the culture supernatants were analyzed with the cognate antibody using ELISA kit. Modulation of CXCL8 expression in the IMQ treated HaCaT cells by MAPK inhibitors, SCH 772984 (ERK inhibitor, (D)), SP600125 (JNK inhibitor, (E)) and SB203580 (p38 inhibitor, (F)) was evaluated using ELISA kit (BD bioscience, New Jersey, USA) according to the manufacturer's instructions. The cytokine levels were estimated by interpolation from a standard curve using an ELISA reader (Molecular Devices, Sunnyvale, USA) at 450 nm.

[3] = system: SR-A silenced cells; assay: Phagocytosis and ROS in SR-A silenced cells; type: cell-based
[4] = system: intracellular ROS in BMDMs and THP-1 cells; assay: Gemcitabine-induced intracellular ROS measurement; type: cell-based; conditions: gemcitabine 10 μg/mL 3 h, dose-dependent
Experimental: A total of 1×10^6 BMDMs and THP-1 were seeded, cultured, and subsequently exposed to various concentrations of PLAG with gemcitabine (10 μg/mL) for 3 h. The cells were then incubated with the ROS-sensitive probe CM-H2DCFDA (Invitrogen™) for 30 min at 37° C. in the dark. After incubation, the cells were washed 3 times with PBS and immediately analyzed using FACS verse (BD biosciences) with an excitation/emission peak at 495/527 nm. A total of 10,000 cells were counted in each determination, and results presented are means±S.E. of three independent experiments. Intracellular ROS production was also measured with a confocal laser scanning microscope (Zeiss LSM 800, Oberkochen, Germany). After incubating CM-H2DCFDA as above, the cells were fixed with 4% paraformaldehyde for 30 min and washed 3 times with PBS before photographing. The excitation and emission wavelengths were identical as described above, and a minimum of 5 random fields was captured for each culture.

[5] = system: chemoradiation-induced oral mucositis
[6] = system: NETosis of dHL-60 cells; assay: IMQ-induced NETosis, confocal microscopy of DNA-elastase complex; type: cell-based, human; conditions: PLAG 10 or 100 μg/mL, dose-dependent
Experimental: HL-60 cells were differentiated (dHL-60) to neutrophil-like cells in the culture medium with the addition of 1.3% DMSO (Sigma) for 5 days in a humidified atmosphere at 37° C. without changing the medium. dHL-60 cells (2×10^5 cells/mL) were loaded with 5 μM fluo-4 AM for 45 minutes and washed three times with warmed modified (37° C.) HBSS buffer (137.93 mM NaCl, 5.33 mM KCl, 2 mM CaCl2, 1 mM MgSO4, 2.38 mM HEPES, 5.5 mM glucose, pH to 7.4). The cells were seeded on black-walled 96-well plates and then treated with vehicle (0.1% DMSO), imiquimod (10 μg/mL) or PLAG (10 or 100 μg/mL) just before measurement. Baseline fluorescence was measured before treatment, and fluorescence was read every 20 s for 700 s using an excitation wavelength of 494 nm, an emission wavelength of 516 nm in a FlexStation 3 microplate reader (Molecular Devices). Fluorescence values were reported as F/Fo according to the calculation: [ΔF=(494 nm)f/(516 nm)f−(494 nm)0/(516 nm)0]. […]
HL-60 cells were harvested and detected extracellular DNA-elastase complex by using ELISA and visualized by using confocal microscopy (×400) or scanning electron microscope (SEM) (×8000). HL-60 cells were washed with PBS and mounted in DAPI-containing fluorescence microscopy mounting medium (Invitrogen). Samples were analyzed with a laser scanning confocal microscope (Carl Zeiss, Oberkochen, Germany).

[7] = Day 9, ChemoRT + PLAG 250 mg/kg

For `CCCCC/C=C\C/C=C\CCCCCCCC(=O)OC(COC(C)=O)COC(=O)CCCCCCCCCCCCCCC` (racemic) [PLAG, 1-palmitoyl-2-linoleoyl-3-acetylglycerol], the “MSU-induced phosphorylation of RIPK3 and MLKL” value ([1]; PLAG 100 μg/mL, time course) was “accelerated”, the “MSU-induced phosphorylation of RIPK1 and RIPK3” value ([1]; PLAG 1, 10, 100 μg/mL, dose-dependent) was “modulated” and the “MIP-2, IL-6, CXCL8 induced by IMQ” value [2] was “gradually decreased”. For the same compound, the “PAMP molecules-induced intracellular ROS” value ([3]; SR-A silenced cells) was “does not increase”, the “enhanced phagocytosis by PLAG” value ([3]; knockdown of SR-A) was “does not show the enhanced phagocytosis” and the “gemcitabine-induced intracellular ROS production” value [4] was “effectively reduced”. For the same compound, the “body weight Day 9” value ([5]; ChemoRT + PLAG 100 mg/kg) was 23.98 ± 2.80 g, the “oral mucosa epithelial thickness” value ([5]; ChemoRT + PLAG 100 mg/kg) was 58.06±24.97 μm and the ulceration area percentage ([5]; ChemoRT + PLAG 100 mg/kg) was 29.32±5.40%. The “CXCL2 mRNA expression in tongues (relative band intensity)” value ([5]; ChemoRT + PLAG 250 mg/kg) was 0.23±0.48 AU, the “IL-6 in tongue tissue extracts” value ([5]; ChemoRT + PLAG 250 mg/kg) was 8.13 ± 1.19 pg/mg and the “IL-6 mRNA expression in tongues (relative band intensity)” value ([5]; ChemoRT + PLAG 250 mg/kg) was 1.34±1.06 AU. The “MIP-2 in tongue tissue extracts” value ([5]; ChemoRT + PLAG 250 mg/kg) was 2.69 ± 0.38 pg/mg, the “body weight Day 9” value ([5]; ChemoRT + PLAG 250 mg/kg) was 26.46 ± 1.68 g and the “oral mucosa epithelial thickness” value ([5]; ChemoRT + PLAG 250 mg/kg) was 85.81±12.24 μm. For the same compound, the ulceration area percentage ([5]; ChemoRT + PLAG 250 mg/kg) was 1.45±2.36%, the “P-MLKL relative band intensity in tongue lysates” value ([5]; ChemoRT+PLAG) was 3.67±2.56 AU and the “P-RIPK1 relative band intensity in tongue lysates” value ([5]; ChemoRT+PLAG) was 0.61±0.45 AU. The “P-RIPK3 relative band intensity in tongue lysates” value ([5]; ChemoRT+PLAG) was 1.27±0.83 AU, the “body weight Day 0” value ([5]; ChemoRT+PLAG) was 25.78 ± 1.04 g and the “neutrophil infiltration in the tongues (IHC NIMP-R14)” value ([5]; ChemoRT+PLAG) was “not observed”. The “serum IL-6” value [5, 7] was 205.75 ± 30.41 pg/mL, the “serum MIP-2” value [5, 7] was 4.42 ± 4.04 pg/mL and the “HMGB1 localization in tongue (IHC)” value ([5]; PLAG-treated mice) was “remained in the nucleus”. For the same compound, the “body weight Day 9” value ([5]; mouse, in vivo) was 25.66 ± 0.70 g and the “IMQ-induced NETosis” value [6] was “promotes”.
